Publication PMC8703873, “Structure and Activity of a Selective Antibiofilm Peptide SK-24 Derived from the NMR Structure of Human Cathelicidin LL-37” (Pharmaceuticals, 2021)
No end group written: not given here.

Experiments:
[1] = HPLC retention time (measure of peptide hydrophobicity); type: physicochemical; conditions: chromatographic, Waters C8 symmetry hydrophobic column, as described in ref 34; used as indicator of peptide hydrophobicity
Source text: In the membrane-bound LL-37 structure determined by 3D NMR spectroscopy, a hydrophobic gap exists (Figure 1A). The location of a hydrophilic S9 on the hydrophobic surface of LL-37 splits the long helix into two hydrophobic domains (gold sticks). The SK-24 peptide we identified here corresponds to the long hydrophobic domain [26]. The amino acid sequence of SK-24, along with LL-37 and its derived antimicrobial peptides, is depicted in Figure 1B. Peptide parameters, including net charge, hydrophobic content, Boman index, GRAVY, hydrophobicity, and hydrophobic moment of each peptide, were calculated using online tools, such as the APD [8] and HeliQuest (Table 1). Except for the shortest RI-10 (net charge +3), LL-37 and its other derived peptides have net charges +5 or +6, above the average net charge (+3.3) of natural antimicrobial peptides registered in the APD [8, 35, 36]. Overall, the hydrophobic percentages (Pho) of these peptides calculated in the APD are proportional to the hydrophobicity and hydrophobic moment calculated by HeliQuest in Table 1. Of note, LL-37 has the highest net charge (+6) and Boman index but the lowest Pho%, GRAVY, and hydrophobic moment.
All peptides were chemically synthesized and purified to >95% (Genemed Synthesis, San Antonio, TX, USA). The quality of each peptide was determined based on mass spectrometry (MS) and high-performance liquid chromatography (HPLC). Peptide stock solutions were freshly made by solubilizing in autoclaved distilled water, and their concentrations were quantitated using UV spectroscopy based on the absorbance difference at 215 and 225 nm as described. Peptide retention time was measured on a Waters C8 symmetry hydrophobic column as described. Other chemicals were purchased from Sigma (St. Louis, MO, USA) unless specified.

[2] = test system: A. baumannii B28-16 preformed biofilms; experiment: Disruption of preformed biofilms (XTT); type: cell-based, Acinetobacter baumannii; conditions: biofilms formed for 24, 48 and 72 h, peptide at 8, 16, 32 or 64 μM for 24 h
Description: The antibiofilm activities of peptides against the preformed biofilms of A. baumannii B28-16 and S. aureus USA300 LAC were evaluated as follows. Bacteria in the logarithmic growth phase were adjusted to a cell density of 10^5 colony forming unit (CFU)/mL. Two hundred microliter cells were seeded into each well of the 96-well plates. The plates were incubated at 37 °C to allow for the formation of biofilm for 24, 48, and 72 h, respectively. The planktonic cells were then removed, followed by a wash. The biofilms were then treated with 20 µL of 10× two-fold diluted peptides and 180 µL of fresh TSB media for 24 h at 37 °C. Cultures treated with water without peptide served as the positive control, and media treated with water was used as the negative control. To quantify the antibiofilm activity of the peptides, the XTT [2, 3-bis (2-methyloxy-4-nitro-5-sulfophenyl)-2H-tertazolium-5-carboxanilide] assay staining method was used to quantitate the live cells. Absorbance was read at 450 nm using a ChroMate microliter plate reader. The percentage biofilm growth for the peptide was plotted by assuming 100% biofilm growth in untreated bacterial control wells. Data were represented as mean ± standard deviation (SD). The data are statistically significant at p < 0.05. Plots were generated using GraphPad Prism v7 (GraphPad Software, San Diego, CA, USA).

A. baumannii B28-16 [3] = experiment: Membrane permeabilization (propidium iodide); type: cell-based, Acinetobacter baumannii; conditions: peptide 16 µM; propidium iodide fluorescence, 2 h, PBS, 37 °C
Description: (§1) Membrane permeabilization was evaluated as described. In brief, bacteria were inoculated and grown overnight. A second inoculation was made and let bacteria grow to the exponential phase. Bacteria were then spun, washed, and resuspended in the same volume of PBS. A series of peptide solutions (10×) was made via two-fold dilution in a 96-well plate (10 µL each). All wells were aliquoted with 2 µL of propidium iodide (20 µM), followed by adding 88 µL of S. aureus USA300 or A. baumannii B28-16 (OD600 ~0.11 in PBS). The plate was incubated at 37 °C with continuous shaking at 100 rpm in a FLUOstar Omega microplate reader (BMG Labtech Inc., Cary, NC, USA). Fluorescence was recorded every 5 min for 2 h with excitation and emission wavelengths of 485 and 620 nm. The data were analyzed by the vendor’s software using averaged values from duplicated experiments.

E. faecium V284-17 = type: cell-based, Enterococcus faecium; conditions: V284-17
K. pneumoniae E406-17 = type: cell-based, Klebsiella pneumoniae; conditions: E406-17
Description: (§2) The antibiotic-resistant pathogens used in this study include the Gram-positive bacteria Enterococcus faecium V286-17 and Staphylococcus aureus USA300 LAC and the Gram-negative bacteria Klebsiella pneumoniae E406-17, Acinetobacter baumannii B28-16, Pseudomonas aeruginosa E411-17, and Escherichia coli E423-17. All bacteria were cultivated in tryptic soy broth (TSB) at 37 °C, 220 rpm.
(§3) The antibacterial activity of peptides was evaluated using a standard broth microdilution protocol with minor modifications. In brief, peptides were made at various concentrations, 10 μL per well in a 96-well polystyrene microplate. Logarithmic phase bacterial cultures (i.e., optical density (OD) at 600 nm ≈ 0.5) were diluted to 0.001 OD, and aliquots of 90 μL were added to each well. Untreated bacterial culture and medium were included as positive and negative controls, respectively. Plates were incubated at 37 °C overnight and read at 630 nm using a ChroMate Microplate Reader (Awareness Technology, Palm City, FL, USA). […] Our previously designed peptide 17BIPHE2 [32] was included as a positive control, and RI-10, a peptide without antibacterial activity in rich media, was utilized as a negative control.

S. aureus USA300 = type: cell-based, Staphylococcus aureus
Description: as §2, §3

S. aureus USA300 LAC [4] = experiment: Membrane permeabilization (propidium iodide); type: cell-based, Staphylococcus aureus; conditions: peptide 8 µM; propidium iodide fluorescence, 2 h, PBS, 37 °C
Description: as §1

S. aureus USA300 LAC [5] = experiment: Membrane depolarization (DiBAC4(3)); type: cell-based, Staphylococcus aureus; conditions: peptide 8 µM; similar trends at 16 and 32 µM; DiBAC4(3) fluorescence
Description: The experiment was conducted as described. In brief, an overnight culture of S. aureus USA300 LAC was subcultured in a fresh TSB medium and grown to the exponential phase. Cells were spun using centrifugation and washed twice with PBS, and resuspended in twice the volume of PBS containing 25 mM glucose and incubated at 37 °C for 15 min. For membrane depolarization measurements, 500 nM (final concentration) of the dye DiBAC4 (3) (bis-(1,3- dibutylbarbituric acid) trimethine oxonol) (AnaSpec, San Jose, CA, USA) was added and vortexed gently. Aliquots of 90 μL of the energized bacteria solution were loaded to the wells, and the plate was fed into a FLUOstar Omega microplate reader. Fluorescence was read for 20 min at excitation and emission wavelengths of 485 and 520 nm, respectively, to get dye normalization. Then 10 μL of diluted peptide solutions were added and gently mixed. Fluorescence readings were recorded for 40 min, where Triton X-100 (0.1%) was used as a positive control.

[6] = test system: clinical and antibiotic-resistant pathogens (panel of Table 3); type: cell-based; conditions: all pathogens of Table 3; peptide 32 µM
Description: as §2, §3

[7] = test system: S. aureus USA300 LAC preformed biofilms; conditions: S. aureus USA300 LAC and other clinical strains (USA200, USA400, Mu50); cited from earlier work
Description: Here, we compared the antibiofilm activity of SK-24 with that of GF-17, GI-20, and 17BIPHE2 against the 24 h preformed biofilms of S. aureus USA300. […] Only SK-24 a ...

E. coli E423-17 = type: cell-based, Escherichia coli
Description: as §2, §3

P. aeruginosa E411-17 = type: cell-based, Pseudomonas aeruginosa; conditions: E411-17
Description: as §2, §3

A. baumannii B28-16 [8] = type: cell-based, Acinetobacter baumannii
Description: as §2, §3

Substance: RIVQRIKDFL-NH2 [RI-10]
- tHPLC (HPLC retention time) [1]: 8.831 min
- Disruption of preformed biofilms [2]: unable to disrupt
- Membrane permeation (A. baumannii B28-16 [3]): some membrane permeation
- MIC (E. faecium V284-17): >32 µM
- MIC (K. pneumoniae E406-17): >32 µM
- MIC (S. aureus USA300): >32 µM
- Membrane permeation (S. aureus USA300 LAC [4]): some membrane permeation
- Membrane depolarization ability (order, words) (S. aureus USA300 LAC [5]): unable to produce a similar effect
- Inhibitory activity at 32 µM [6]: did not show any inhibitory activity
- Disruption of 24 h preformed biofilms (words, found previously) [7]: neither LL-37 nor RI-10 was able to disrupt
- MIC (E. coli E423-17): >32 µM
- MIC (P. aeruginosa E411-17): >32 µM
- MIC (A. baumannii B28-16 [8]): >32 µM
